In patent US20100173923A1, “4 (PYRROLOPYRIDINYL)PYRIMIDINYL-2-AMINE DERIVATIVES” (priority 2006, published 2010):

Test system: tumour cells (for example commercially available colon carcinoma cell lines)
Experiment: Inhibition of the proliferation/vitality of tumour cells in vitro (Crystal Violet staining)
Assay type: cell-based
Settings: 48 hours incubation with test substance, serum-containing medium, Crystal Violet absorbance, value given as range
Procedure: In the present experiment description, the inhibition of tumour cell proliferation/tumour cell vitality by active ingredients is described.
The cells are sown in a suitable cell density in microtitre plates (96-well format). On the next day, the test substances are added in the form of a concentration series. After two further days of cultivation in serum-containing medium, the cell density is determined photometrically by staining the cells with Crystal Violet.
For example commercially available colon carcinoma cell lines.
The cells are cultivated in medium. At intervals of 3-4 days, the cells are detached from the culture dishes with the aid of trypsin solution and sown in suitable dilution in fresh medium. The cells are cultivated at 37° Celsius and 10% CO2.
• A cell culture bottle is washed with 1×PBS • Addition of 3 ml of 1× trypsin solution. Incubation at 37° C. for 5 min in an incubator. • Termination by addition of 7 ml of medium • Centrifugation of the cells (for example for 5 minutes at 150×g (1200 rpm)) • Remove medium by tilting and resuspend cells in fresh medium • Cell counting, for example using Trypan Blue solution (1:2 dilution) in counting chamber • Dilute cell suspension to 25,000 cells/ml and plate out 100 μl/well (2500 cells/well) • Incubation of the microtitre plate at 37° C. in 10% CO2 overnight
• The test substances are dissolved, for example, in DMSO and subsequently employed in corresponding concentration (if desired in a dilution series) in the cell culture medium. The dilution steps can be adapted depending on the efficiency of the active ingredients and the desired spread of the concentrations. Cell culture medium is added to the test substances in corresponding concentrations. Within the dilution series, the final concentration of DMSO in the cell culture medium can be constant (for example at 0.5%). The addition of the test substances to the cells can take place one day after sowing of the cells. To this end, the medium is removed from the cells, and the test substance dilutions are added to the cells (in the desired concentrations in the cell culture medium). […]
• The medium is removed from the cells, and the cells are washed with PBS. […] An absorption measurement is carried out at corresponding wavelength, for example 550 nm, in a microtitre plate reader (for example TECAN Genios No F129004). […]
The absorbance value of the medium control (no cells and test substances used) is subtracted from all other absorbance values. The controls (cells without test substance) with the solvent DMSO are set equal to 100 percent, and all other absorbance values are set in relation thereto (for example in % of control):
IC50 values (50% inhibition) are determined with the aid of statistics programs, such as, for example, RS1.

SMILES	IC50 [µM]
c1ccc(Nc2nccc(-c3c[nH]c4ncccc34)n2)cc1 [Compound A1, 3-(2-phenylaminopyrimidin-4-yl)-1H-pyrrolo[2,3-b]pyridine]	0.05 to 0.5
COCCn1cc(-c2ccnc(Nc3ccccc3)n2)c2cccnc21 [Compound A2, 1-(2-methoxyethyl)-3-(2-phenylaminopyrimidin-4-yl)-1H-pyrrolo[2,3-b]pyridine]	5 to 50
CNc1nccc(-c2c[nH]c3ncccc23)n1 [Compound A3]	0.5 to 5
CNc1nccc(-c2cn(CCOC)c3ncccc23)n1 [Compound A4]	5 to 50
